Measured values: patent publication US20170022201A1, “MACROCYLIC PYRIDINE DERIVATIVES” (Janssen Pharmaceutica NV, priority 2014, published 2017)

What was measured:
EF2K = biological target: T1, EF2K (Homo sapiens, UniProt O00418); experiment: Biochemical EF2K lysate-based kinase assay (AlphaLISA p-eEF2 Thr56); settings: LN-229 cell lysates, 10 mM ATP, pH 6.6; pIC50 = -log IC50 (M); read-out: eEF2K_C_alphalisa pIC50 (converted)
T1 construct: host or cells: LN-229 glioblastoma cell lysate
T1 sequence (O00418 1-725): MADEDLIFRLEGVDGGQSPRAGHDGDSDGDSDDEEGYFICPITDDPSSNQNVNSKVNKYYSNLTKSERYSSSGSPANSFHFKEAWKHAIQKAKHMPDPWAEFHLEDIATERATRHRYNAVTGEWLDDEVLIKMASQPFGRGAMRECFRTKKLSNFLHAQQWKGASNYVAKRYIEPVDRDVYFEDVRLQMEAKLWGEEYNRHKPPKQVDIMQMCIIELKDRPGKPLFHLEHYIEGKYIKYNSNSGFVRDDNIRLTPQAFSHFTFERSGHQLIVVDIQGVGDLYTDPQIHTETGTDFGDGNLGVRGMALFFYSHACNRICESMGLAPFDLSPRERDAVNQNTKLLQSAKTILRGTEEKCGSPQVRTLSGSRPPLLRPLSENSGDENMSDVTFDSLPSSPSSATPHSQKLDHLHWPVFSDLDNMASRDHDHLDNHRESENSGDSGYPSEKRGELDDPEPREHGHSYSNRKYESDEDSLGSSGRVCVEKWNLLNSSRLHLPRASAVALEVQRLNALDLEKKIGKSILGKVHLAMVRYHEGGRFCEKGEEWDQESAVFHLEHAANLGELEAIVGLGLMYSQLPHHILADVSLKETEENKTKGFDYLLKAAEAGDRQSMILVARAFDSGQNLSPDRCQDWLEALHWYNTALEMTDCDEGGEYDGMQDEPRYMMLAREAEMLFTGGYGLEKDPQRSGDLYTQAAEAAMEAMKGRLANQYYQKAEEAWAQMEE
Text: LN-229 cells were purchased from ATCC (CRL-2611); these are glioblastoma cells. Cell lysates from LN229 were used in this kinase assay to provide both the kinase and the substrate (EF2). The AlphaLISA p-eEF2 (Thr56) detection assay was developed using a sandwich assay format with two specific antibodies recognizing different epitopes of the target, including one antibody against the phosphorylation site of interest. One anti-eEF2 antibody was conjugated onto AlphaLISA Acceptor beads, while the second antibody was biotinylated and captured by streptavidin coated Donor beads.
Compound was mixed with LN-229 cell lysates in the presence of a kinase buffer (e.g. HEPES) at a pH of 6.6, containing 10 mM Mg^2+ (e.g. magnesium acetate) and 10 mM adenosine-tri-phosphate (ATP) and incubated at room temperature for 15 minutes. The kinase reaction was stopped with excess ethylenediaminetetraacetic acid disodium salt and the biotinylated-anti phospho eEF2 antibody (3 nM) was added for 1 hour. Then the anti-EF2 acceptor beads (10 μg/ml) as well as the streptavidin coated donor beads (20 μg/ml) were added for 1 hour, and the AlphaLISA signal was measured in an Envision instrument once, left overnight, and measured again for the final read.

eEF2K = biological target: T2, eEF2K (Homo sapiens, UniProt O00418); experiment: EF2K cell-based assay (P-EF2 AlphaLISA, 2-deoxyglucose stimulated MCF10A cells); settings: 2.5 mM 2-deoxyglucose 4 h, phosphorylation of EF2 at Thr 56, pIC50 = -log IC50 (M); for IC50: read-out: eEF2K_C_PThr56 pIC50 (converted)
T2 construct: in the immortalized epithelial breast cell lines, MCF10A; host or cells: MCF10A immortalized breast epithelial cells
T2 sequence (O00418 1-725): T1 sequence (O00418 1-725)
Protocol: In this assay, 2.5 mM 2-deoxyglucose was used to deplete intracellular ATP and activate 5′ adenosine monophosphate-activated protein kinase (AMPK) in the immortalized epithelial breast cell lines, MCF10A. MCF 10A cells were purchased from ATCC (CRL-10317).
MCF10A cells are seeded at a density of 1.25×10^5 Cells/ml at 100 μl/well in a 96-well plate and incubated for 24 hours (37° C., 5% CO2). Compound is added for 1 hour, and cell are stimulated with 2.5 mM of 2-deoxy-glucose for 4 hours. Medium is then removed, and cells are lysed in an ice-cold buffer M-PER (Thermo Scientific, 78501), containing protease and phosphatase inhibitors. P-EF2 levels are determined in these lysates using the P-EF2 AlphaLISA described above.

PIK3C3 lipid kinase = PIK3C3 lipid kinase (Homo sapiens, UniProt Q8NEB9); experiment: Biochemical Vps34 lipid kinase assay (ADP-Glo); settings: 20 μM ATP; for IC50: serial dilution 10 μM to 0.3 nM, pIC50 = -log IC50 (M); for remaining activity at 1 µM: 1 h, read-out: VPS34_1microM_%ofcntrl; for remaining activity at 1 µM / VPS34_1microM_%ofcntrl: single dose 1 μM, residual activity compared to control (DMSO)
PIK3C3 lipid kinase, sequence (Q8NEB9 whole entry): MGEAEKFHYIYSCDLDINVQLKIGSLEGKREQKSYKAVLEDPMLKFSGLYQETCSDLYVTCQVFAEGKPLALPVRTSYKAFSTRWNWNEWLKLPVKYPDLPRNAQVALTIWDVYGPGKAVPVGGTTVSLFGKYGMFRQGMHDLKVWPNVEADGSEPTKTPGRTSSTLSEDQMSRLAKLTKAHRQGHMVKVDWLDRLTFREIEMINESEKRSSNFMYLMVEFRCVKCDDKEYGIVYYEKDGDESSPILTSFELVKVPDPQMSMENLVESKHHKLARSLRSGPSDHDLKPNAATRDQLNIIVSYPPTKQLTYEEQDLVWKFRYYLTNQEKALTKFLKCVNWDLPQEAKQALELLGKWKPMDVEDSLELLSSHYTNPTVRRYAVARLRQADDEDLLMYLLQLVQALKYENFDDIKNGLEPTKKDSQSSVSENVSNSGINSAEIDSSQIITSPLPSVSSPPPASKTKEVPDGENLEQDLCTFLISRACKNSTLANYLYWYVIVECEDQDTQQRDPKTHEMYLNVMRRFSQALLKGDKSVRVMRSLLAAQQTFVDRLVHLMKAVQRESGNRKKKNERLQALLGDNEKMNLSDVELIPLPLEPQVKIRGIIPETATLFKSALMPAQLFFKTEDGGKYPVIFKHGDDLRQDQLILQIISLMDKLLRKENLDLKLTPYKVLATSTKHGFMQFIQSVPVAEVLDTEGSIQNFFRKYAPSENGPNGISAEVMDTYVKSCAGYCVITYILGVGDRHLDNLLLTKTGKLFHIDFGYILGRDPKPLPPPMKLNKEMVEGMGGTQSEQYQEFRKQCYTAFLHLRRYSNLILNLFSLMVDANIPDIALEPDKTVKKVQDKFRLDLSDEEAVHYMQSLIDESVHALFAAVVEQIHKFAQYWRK
Protocol: A non-radiometric kinase assay (ADP-Glo™ Assay, Promega, Madison, Wi, USA) was used for measuring the kinase activity of the PIK3C3 lipid kinase. All kinase assays were performed in 96-well half-area microtiter plates in a 25 μl reaction volume. The reaction cocktail was pipetted in 3 steps in the following order: • 10 μl of ATP solution (in assay buffer, see below) • 5 μl of test sample in 5% DMSO 10 μl of enzyme/substrate mixture
All lipid kinase assays contained 50 mM HEPES (4-(2-hydroxyethyl)-1-piperazineethanesulfonic acid)—NaOH, pH 7.5, 1 mM EGTA ((ethylene glycol tetraacetic acid), 100 mM NaCl, 0.03% CHAPS (3-[(3-Cholamidopropyl) dimethylammonio]-1-propanesulfonate), 2 mM DTT (Dithiothreitol), 20 μM ATP (corresponding to the apparent ATP-Km), kinase (7.6 nM) and substrate (50 μM). The assay for PIK3C3 additionally contained 3 mM MnCl2.
The reaction cocktails were incubated at 30° C. for 60 minutes. The reaction was stopped with 25 μl ADP-Glo™ reagent per well. Plates were incubated for 40 minutes at room temperature, followed by addition of 50 μl kinase detection reagent per well and incubation for 60 minutes at room temperature. Signal was determined with a microplate luminescence reader (Victor, Perkin Elmer). The assay was either performed using a single dose of compound (1 μM final concentration in the assay reaction) with resulting data expressed as residual activity compared to control (DMSO), or using a serial (half-log) dilution of compounds starting at 10 μM and down to 0.3 nM (final concentrations in the assay) with data expressed as the pIC50.

Structure (SMILES) | IC50 (EF2K) | IC50 (eEF2K) | IC50 (PIK3C3 lipid kinase) | remaining activity at 1 µM (PIK3C3 lipid kinase) | eEF2K_C_PThr56 pIC50 (eEF2K) | VPS34_1microM_%ofcntrl (PIK3C3 lipid kinase)
CC1CN2CCN1Cc1cccc(c1)Nc1cc(ccn1)-c1cnc(nc1)N1CCCC1CCNC(=O)C2 (stereo not drawn) [Compound 47] | 8.51e-09 M | 4.17e-07 M | 9.12e-06 M | – | – | –
NC(=O)C1CCNC(=O)CN2CCN(CC2)Cc2cccc(c2)Nc2cc(ccn2)-c2cnc(nc2)N1 (stereo not drawn) [Compound 121] | 5.13e-06 M | > 1e-05 M | 2.63e-06 M | – | – | –
O=C1CN2CCC(CC2)Oc2cccc(c2)Nc2cc(ccn2)-c2cnc(nc2)NCCCN1 [Compound 90] | 1.91e-08 M | 5.25e-07 M | 6.17e-08 M | – | – | –
CN1CCN(CCCO)c2ncc(cn2)-c2ccnc(c2)Nc2cccc(c2)CN2CCN(CC2)CC1=O [Compound 17] | > 3.02e-05 M | > 3.02e-05 M | – | 62.4% | – | –
CN1c2cccc(c2)Nc2cc(ccn2)-c2cnc(nc2)NCCCNC(=O)CN2CCC1CC2 [Compound 101] | 2e-07 M | 3.98e-06 M | – | 31.1% | – | –
O=C1CN2CCN(CC2)Cc2cccc(c2)Nc2cc(ccn2)-c2cnc(nc2)NC(C(=O)O)CCN1 (stereo not drawn) [Compound 117] | 4.57e-07 M | – | 1.41e-07 M | – | <4.52 | 16.31%
O=C1CN2CCN(CC2)Cc2cccc(c2)Nc2cc(ccn2)-c2cnc(nc2)N2CC(O)CC2CCN1 (stereo not drawn) [Compound 54] | 1.1e-08 M | 7.94e-07 M | 9.77e-06 M | – | – | –
O=C1CN2CCN(CC2)Cc2cccc(c2)Nc2cc(ccn2)-c2ccc(nc2)NCCCN1 [Compound 67] | ~3.55e-07 M | 3.98e-06 M | – | 34% | – | –
O=C1CC2CCNC(=O)CN3CCN(CC3)Cc3cccc(c3)Nc3cc(ccn3)-c3cnc(nc3)N2C1 (stereo not drawn) [Compound 88] | 6.46e-08 M | 4.57e-07 M | – | 66.5% | – | –
CC1CN2CCN1Cc1cccc(c1)Nc1cc(ccn1)-c1cnc(nc1)N1CC(O)CC1CCNC(=O)C2 (stereo not drawn) [Compound 61] | 1.26e-08 M | 4.27e-07 M | – | – | – | 80.70%
O=C1CN2CCN(Cc3cccc(c3)Nc3cc(ccn3)-c3cnc(nc3)NCCCN1)C(CO)C2 (single isomer, unassigned) [Compound 8] | 4.17e-08 M | 2.57e-06 M | 1.66e-07 M | – | – | 9.64%
O=C1CN2CCN(Cc3cccc(c3)Nc3cc(ccn3)-c3cnc(nc3)N3CCCC3CCN1)C(CO)C2 (stereo not drawn) [Compound 44] | 2.45e-08 M | 8.71e-06 M | 1.55e-06 M | – | – | –

Continued, values first:

IC50 (EF2K) | IC50 (eEF2K) | IC50 (PIK3C3 lipid kinase) | remaining activity at 1 µM (PIK3C3 lipid kinase) | eEF2K_C_PThr56 pIC50 (eEF2K) | VPS34_1microM_%ofcntrl (PIK3C3 lipid kinase) | Structure (SMILES)
1.38e-05 M | > 3.02e-05 M | 2.14e-06 M | – | – | – | O=C1CN2CCN(CC2)Cc2cccc(c2)Nc2cc(ccn2)-c2ccc(nc2)N2CCCC2CCN1 (single isomer, unassigned) [Compound 143]
1e-06 M | 1.58e-06 M | – | 57% | – | – | C=CCN1CCNC(=O)CN2CCN(CC2)Cc2cccc(c2)Nc2cc(ccn2)-c2cnc(nc2)C1 [Compound 130]
1.95e-08 M | ~2.29e-06 M | – | 33.8% | – | – | NS(=O)(=O)NC1CC2CCNC(=O)C3(CC3)N3CCN(CC3)Cc3cccc(c3)Nc3cc(ccn3)-c3cnc(nc3)N2C1 (stereo not drawn) [Compound 87]
1.62e-07 M | ~5.89e-06 M | 2.63e-07 M | 11% | – | – | CC1CN2CCN1Cc1cccc(c1)Nc1cc(ccn1)-c1cnc(nc1)NCCCNC(=O)C2 (stereo not drawn) [Compound 40]
1.2e-07 M | 1.51e-06 M | – | 70.1% | – | – | CC1(C)c2cccc(c2)Nc2cc(ccn2)-c2cnc(nc2)NCCCNC(=O)CN2CCN1CC2 [Compound 74]
5.13e-07 M | > 3.02e-05 M | 4.68e-06 M | – | – | – | CN1CCCN(C)c2ccc(cn2)-c2ccnc(c2)Nc2cccc(c2)CN2CCN(CC2)CC1=O [Compound 68]
6.61e-08 M | 4.79e-06 M | – | 86.8% | – | – | CC1CN2CCN1Cc1cccc(c1)Nc1cc(ccn1)-c1cnc(nc1)N1CC(O)CC1CCNC(=O)C2 (stereo not drawn) [Compound 60]
8.51e-08 M | > 3.02e-05 M | – | 43.3% | – | – | CN1CCCN(C)c2ncc(cn2)-c2ccnc(c2)Nc2cccc(c2)CN2CCN(CC2)CC1=O [Compound 38]
